Assay: xn = mol fraction of the nth substance listed
Conditions: 298.15 K, Liquid

CCCCCCCCCl [1-chlorooctane] + CN(C)C=O
mass density [kg/m3]
Conditions	x2 = 0.1042	x2 = 0.2009	x2 = 0.2669	x2 = 0.4023	x2 = 0.4992	x2 = 0.6035	x2 = 0.6982	x2 = 0.8002	x2 = 0.9001
100 kPa	871.7	875.3	877.9	884.2	889.7	896.8	904.7	914.9	927.7
2000 kPa	873.1	876.7	879.4	885.6	891	898.2	906	916.1	928.8
4000 kPa	874.7	878.2	880.8	887.1	892.5	899.6	907.5	917.4	930.2
6000 kPa	876.1	879.7	882.3	888.5	893.9	900.9	908.8	918.8	931.4
7900 kPa	877.6	–	–	–	–	–	–	–	–
8000 kPa	–	881.1	883.7	889.9	895.3	902.3	910.1	920.1	932.6
9900 kPa	–	–	–	–	–	–	–	921.4	–
10000 kPa	879.1	882.7	885.2	891.4	896.8	903.7	911.4	–	933.9
12000 kPa	880.6	884.1	886.6	892.8	898.1	905	912.7	922.7	935.1
13900 kPa	–	885.4	–	–	–	–	–	–	–
14000 kPa	882	–	887.9	894.1	899.4	906.3	914	924	936.3
15900 kPa	883.2	–	889.2	–	900.7	–	–	–	–
16000 kPa	–	886.4	–	895.4	–	907.7	915.4	925	937.6
17900 kPa	–	–	–	896.7	–	–	–	–	938.6
18000 kPa	884.6	888.2	890.6	–	902	908.9	916.5	926.3	–
20000 kPa	886	–	891.8	898	903.3	910.3	917.7	927.5	939.8
20100 kPa	–	889.6	–	–	–	–	–	–	–
